One data set deals with C. glabrata. Briefly: In vitro MIC susceptibility testing, broth microdilution. The data set is classed as cell-based, Candida glabrata. The procedure: In vitro MIC susceptibility testing. […]. Amphotericin B was used as a positive control and the MICs range were 0.25-1.5 μg/mL. Six untreated media controls were included on each plate. The plates were incubated at 33° C. for 72 h. The MICs were determined as the lowest concentration that inhibited visible growth. The MICs were read at 24, 48, and 72 hours, respectively. […]
For orientation: Broth dilution looks for growth in wells or tubes with falling amounts of substance.

In the next data set the test system is sheep red blood cells. Briefly: Hemolysis assay. In kind it is cell-based. The following applies: 1 h, concentrations exceeding the MIC by 1000-fold. The procedure:
Hemolysis Assay. Assays were performed in 384-well plates using sheep blood (0.1% triton as the positive control). Sheep's blood (Ward's Science) was washed with PBS and diluted to a concentration of 6×10^7 red blood cells per ml. A volume of 50 μL of blood was incubated with compound for 1 h, and subsequently pelleted at 4000 rpm for 10 min. Thirty microliters of supernatant were transferred to a clear plate and OD570 was read. An increase in OD indicated the red blood cell lysis and hemolytic activity.

A further data set has as its system C. tropicalis. Description: In vitro MIC susceptibility testing, broth microdilution. The following applies: Candida tropicalis. In kind it is cell-based. As for the experimental part:
In vitro MIC susceptibility testing. […] The plates were incubated at 33° C. for 72 h. The MICs were determined as the lowest concentration that inhibited visible growth. The MICs were read at 24, 48, and 72 hours, respectively.

Data set [1] is described as follows: Solubility of turbinmicin in aqueous solvents. The data set is classed as physicochemical. From the text:
In some embodiments, the pharmaceutical composition comprises turbinmicin and a pharmaceutically acceptable carrier comprising aqueous DMSO, e.g., DMSO in water, DMSO in 0.9% saline or DMSO in phosphate buffered saline (e.g., about 0.01 to about 0.1 molar Na/K phosphate buffer, about pH 7.4). In some embodiments the amount of DMSO in aqueous solution varies from at least about 1% by weight to about 80% by weight. […]. As turbinmicin had limited aqueous solubility, various solubilizing conditions (Table 4) were tested.

The subject of another data set is C. albicans. Briefly: Time kill experiments. The data set is classed as cell-based, Candida albicans. The following applies: C. albicans (K-1, FIG. 6B), 1x to 16x MIC, 0-48 h. The procedure:
(§1) FIGS. 6A-C show time-kill curves for turbinmicin against (6A) C. auris B11211, (6B) C. albicans K-1, and (6C) C. glabrata 4720.
(§2) Time Kill Experiments. Fresh Candida colonies from an overnight growth were added to normal saline and the turbidity was adjusted to a 0.6 transmittance at 530 nm to provide a standard suspension (1*10^6 CFU/mL). This suspension was diluted with RPMI 1640 medium buffered with MOPS and a standard compound stock solution to achieve a starting inoculum of approximately 10^5 CFU/ml. Each 20 mL culture (RPMI 1640 medium buffered with MOPS) was incubated at 35° C. with constant shaking, and 0.1 mL samples were withdrawn for the determination of fungal counts at 0, 2, 4, 6, 8, 24 and 48 h. Colony counts were determined by viable counts on sabouraud agar plate (SDA) after incubation for 48 h. Growth control for each organism were prepared without antifungal and run in parallel.

The next data set deals with C. auris. Description: Time kill experiments. In kind it is cell-based, Candida auris. The following applies: C. auris (B11211, FIG. 6A), 1x to 16x MIC, 0-48 h. The procedure:
as §1, §2

Values after ≈ are worked out from the molar mass of the structure shown. Like-named read-outs stand apart in the source and are kept apart here.

Broadly, the MIC is the least concentration at which growth counts as inhibited. Low values mean a more susceptible organism, high ones a less susceptible organism. `C/C=C/C=C/C=C/C(=O)OC1C=CCC2C(=O)c3c(O)c4c5c(c3OC12)OCOC5CC1C(=O)c2cc(C)[nH]c(=O)c2C(=O)C41O` (stereo not shown) [Turbinmicin, turbinmicin]: the MIC with C. glabrata (Nakaseomyces glabratus) was found to be 0.5 µg/mL (≈ 0.797 µM); against C. glabrata (strain 513), 0.5 µg/mL (≈ 0.797 µM); against C. glabrata (strain 729, Fks2_HS1_S663P), 0.5 µg/mL (≈ 0.797 µM); against C. glabrata (strain 5592), 0.5 µg/mL (≈ 0.797 µM); with C. glabrata (strain 14378, Fks1_HS1_S629P), 0.5 µg/mL (≈ 0.797 µM); against C. tropicalis (ATCC750, strain ATCC 750), 0.25 µg/mL (≈ 0.398 µM). Also, the MIC with C. tropicalis (strain 001) turned out to be 0.5 µg/mL (≈ 0.797 µM); against C. tropicalis (strain 98-234) it was 0.5 µg/mL (≈ 0.797 µM); against C. tropicalis (strain 1751), 0.25 µg/mL (≈ 0.398 µM); against C. tropicalis (strain 2597), 0.25 µg/mL (≈ 0.398 µM). In addition, in the data set with sheep red blood cells, the “red blood cell toxicity (hemolysis)” value is “did not exhibit red blood cell toxicity”. For the same compound, the “Highest Turbmicin conc. Achieved” value in data set [1] (No. 2, DMSO (1% in PBS)) is listed as at most 0.5 mg/mL; in data set [1] (No. 4, DMSO (10% in PBS)), 2 mg/mL; in data set [1] (No. 5, PEG 400 (50% in PBS)), at most 0.5 mg/mL; in data set [1] (No. 6, Kolliphor EL (10% in PBS)) it was at most 0.5 mg/mL; in data set [1] (No. 7, Tween 80 (2% in PBS)), at most 0.5 mg/mL. Moreover, the solubility in data set [1] (aqueous with cosolvent or surfactant or cyclodextrin, mixtures of DMSO and water, read-out: concentration solubilized) is above 500 µg/mL; in data set [1] (pH 7.4, aqueous buffer, No. 1, PBS, read-out: Highest Turbmicin conc. Achieved), at most 500 µg/mL; in data set [1] (pH 7.4, aqueous with cosolvent or surfactant or cyclodextrin, No. 3, DMSO (5% in PBS), read-out: Highest Turbmicin conc. Achieved), at most 1000 µg/mL; in data set [1] (water, read-out: water solubility), below 500 µg/mL. The time-kill activity result in the data set on C. albicans and in the data set with C. auris was “Fungacidal activity was observed” in each case.

These data come from US12240859B2, “Turbinmicin compounds, compositions and uses thereof” (Wisconsin Alumni Research Foundation, priority 2019, dated 2025).
